“And” between values parts separate entries of the source, which are not always exact repeats. Identical values can stand only once.
Assay: Hill coefficient was evaluated

| Hill coefficient | Structure (SMILES) |
| --- | --- |
| 1.01 and 1.18 | COc1ccc(CCN2C3CC[C@@H]2[C@@H](N(C(=O)c2ccc([N+](=O)[O-])cc2)c2ccc(OC)c(OC)c2)C3)cc1OC |
| 1.37 and 0.93 | COc1ccc(CCN2C3CC[C@@H]2[C@H](N(C(=O)c2ccc([N+](=O)[O-])cc2)c2ccc(OC)c(OC)c2)C3)cc1OC |

— ChEMBL document CHEMBL1130498, “Synthesis of conformationally constrained analogues of BRL-32872. Determination of stereochemistry and related pharmacological properties” (Bioorg Med Chem Lett, 1997)
